Source: PMC4127523, “A novel 11β-hydroxysteroid dehydrogenase type1 inhibitor CNX-010-49 improves hyperglycemia, lipid profile and reduces body weight in diet induced obese C57B6/J mice with a potential to provide cardio protective benefits” (BMC Pharmacology & Toxicology, 2014)

Target: T1, 11β-hydroxysteroid dehydrogenase type 1 (11β-HSD1), mouse isoform (Mus musculus, UniProt P50172)
T1 construct: gene Hsd11b1; native 11β-HSD1 in differentiated C2C12 myotubes
Assay: Cell-based cortisone to cortisol conversion in C2C12 myotubes, LCMS/MS

T1 sequence (P50172 whole entry, canonical isoform): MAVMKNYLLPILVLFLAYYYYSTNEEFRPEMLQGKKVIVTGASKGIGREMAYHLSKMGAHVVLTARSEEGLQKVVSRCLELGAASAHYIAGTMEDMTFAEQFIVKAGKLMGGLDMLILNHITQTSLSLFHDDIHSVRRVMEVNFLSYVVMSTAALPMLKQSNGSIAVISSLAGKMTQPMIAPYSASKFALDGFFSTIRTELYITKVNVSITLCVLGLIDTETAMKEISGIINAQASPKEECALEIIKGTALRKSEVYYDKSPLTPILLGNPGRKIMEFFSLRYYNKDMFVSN

IC50: 64 nM
Substance: CNX-010-49
